Like-named read-outs stand apart in the source and are kept apart here.
Assays:
Swiss white mice = experiment: in vivo
Protocol: (§1) Mammalian toxicity was determined against Swiss white mice. The test compound was applied orally using corn oil or propylene glycol as the carrier, depending upon solubility of the compound therein.

in vivo = conditions: mouse, in vivo, po
Protocol: as §1

[1] = system: house flies, Musca domestica; experiment: Topical insecticidal activity against house flies (percent mortality 24 hours after application); assay type: in vivo; conditions: read-out: House flies LD50
Protocol: (§2) Representative compounds of the N,N'-sulfinyldicarbamate esters of the invention were tested for insecticidal activity against two insect species, house flies, Musca domestica, and mosquito larvae, Culex pipiens. Stock 1% concentrated solutions of each of the test compounds were made in acetone, and such solutions diluted with acetone to a concentration of 0.001-0.1%. House flies were treated topically on the notum by 1 μl of each of the diluted acetone solutions and percent mortality was counted 24 hours after application. Insects were held at a constant temperature of 60° F. Larvicidal activity was determined by applying 1 ml of the acetone solution in 100 ml of water containing 20 3rd instar mosquito larvae. Results are presented as LD50 in μg/g for house flies and LC50 in ppm for mosquito larvae.

[2] = system: mosquito larvae, Culex pipiens; experiment: Larvicidal activity against mosquito larvae; assay type: in vivo; conditions: 3rd instar larvae, 1 ml acetone solution in 100 ml water, 20 larvae
Protocol: as §2

[3] = topical on the notum, 1 μl acetone solution, 24 hours, 60° F.

| SMILES | LD50 (in vivo) | LD50 ([1]; topical, 24 h) | also measured |
| --- | --- | --- | --- |
| CNC(=O)Oc1ccccc1OC(C)C [2-isopropoxyphenyl methylcarbamate, reference compound] | – | – | Mice LD50 (Swiss white mice; oral, corn oil or propylene glycol carrier): 60 mg/kg |
| CCOC(=O)N(C)[S+]([O-])N(C)C(=O)Oc1cccc(C(C)C)c1 (centres unmarked) [3-isopropylphenyl N-[N'-(ethoxycarbonyl)-N'-(methylaminosulfinyl)]-N-methylcarbamate] | 50 to 100 mg/kg | 75 mg/kg | – |
| CN(C(=O)Oc1cccc2c1OC(C)(C)C2)[S+]([O-])N(C)C(=O)Oc1cccc2c1OC(C)(C)C2 [Example I, N,N'-sulfinyldi-(2,3-dimethyl-2,3-dihydrobenzofuranyl-7 methylcarbamate)] | 165 mg/kg | 20 mg/kg | – |
| CC(C)Oc1ccccc1OC(=O)N(C)[S+]([O-])N(C)C(=O)Oc1ccccc1OC(C)C [Example II, N,N'-sulfinyldi-(2-isopropoxyphenyl methylcarbamate)] | 940 mg/kg | 85 mg/kg | – |
| CSC(C)=NOC(=O)N(C)[S+]([O-])N(C)C(=O)ON=C(C)SC [Example III] | 210 mg/kg | – | LD50 [1, 3]: 40 mg/kg |
| COC(=O)N(C)[S+]([O-])N(C)C(=O)Oc1cccc2c1OC(C)(C)C2 (centres unmarked) [Example VII, 2,3-dihydro-2,2-dimethylbenzofuranyl-7 N-[N'-(methoxycarbonyl)-N'-(methylaminosulfinyl)]-N-methylcarbamate] | 62 mg/kg | 9 mg/kg | – |
| CCCOC(=O)N(C)[S+]([O-])N(C)C(=O)ON=C(C)SC (centres unmarked) [Example VI] | 160 mg/kg | – | LD50 [1, 3]: 6.6 mg/kg |
| CCCOC(=O)N(CC)[S+]([O-])N(C)C(=O)ON=C(C)SC (centres unmarked) [Example V] | 115 mg/kg | – | LD50 [1, 3]: 7 mg/kg |
| CSC(C)(C)C=NOC(=O)N(C)[S+]([O-])N(C)C(=O)ON=CC(C)(C)SC [IV, N,N'-sulfinyldi[2-methyl-2-(methylthio)propionaldehyde O-(methylcarbamoyl)-oxime]] | 1.8 mg/kg | – | LD50 [1, 3]: 6.5 mg/kg |
| CCCOC(=O)N(C)[S+]([O-])N(C)C(=O)Oc1cccc2c1OC(C)(C)C2 (centres unmarked) [IX, 2,3-dihydro-2,2-dimethylbenzofuranyl-7 N-[N'-(n-propoxycarbonyl)-N'-(methylaminosulfinyl)]-N-methylcarbamate] | 100 mg/kg | 9 mg/kg | – |
| CNC(=O)ON=C(C)SC [S-methyl N-(methylcarbamoyloxy)thioacetimidate, reference compound] | 10 mg/kg | – | – |
| CCOC(=O)N(C)[S+]([O-])N(C)C(=O)Oc1cccc2c1OC(C)(C)C2 (centres unmarked) [VIII, 2,3-dihydro-2,2-dimethylbenzofuranyl-7 N-[N'-(ethoxycarbonyl)-N'-(methylaminosulfinyl)]-N-methylcarbamate] | 56 mg/kg | 13 mg/kg | Culex LC50 [2]: 0.04 ppm |
| CCCCCCCOC(=O)N(C)[S+]([O-])N(C)C(=O)Oc1cccc2c1OC(C)(C)C2 (centres unmarked) [X, 2,3-dihydro-2,2-dimethylbenzofuranyl-7 N-[N'-(n-heptoxycarbonyl)-N'-(methylaminosulfinyl)]-N-methylcarbamate] | 150 mg/kg | 13.5 mg/kg | Culex LC50 [2]: 0.015 ppm |
| CCCOC(=O)N(C)[S+]([O-])N(C)C(=O)Oc1ccccc1OC(C)C (centres unmarked) [XI, 2-isopropoxyphenyl N-[N'-(n-propoxycarbonyl)-N'-(methylaminosulfinyl)]-N-methylcarbamate] | 500 to 1000 mg/kg | 20 mg/kg | Culex LC50 [2]: 0.18 ppm |
| COC(=O)N(C)[S+]([O-])N(C)C(=O)Oc1cccc(C(C)C)c1 (centres unmarked) [XII, 3-isopropylphenyl N-[N'-(methoxycarbonyl)-N'-(methylaminosulfinyl)]-N-methylcarbamate] | 70 mg/kg | 80 mg/kg | – |
| CNC(=O)Oc1cccc2c1OC(C)(C)C2 [carbofuran, 2,3-dihydro-2,2-dimethyl-7-benzofuranyl methylcarbamate, reference compound] | – | – | Mice LD50 (Swiss white mice; mouse, in vivo, po): 2-8 |

Reference: patent publication US4298617A, “Symmetrical and asymmetrical sulfinyl-dicarbamates” (priority 1979, dated 1981)
